For two compounds, EC50 results are on record in paper PMC6302903, “Protein and Chemical Determinants of BL-1249 Action and Selectivity for K2P Channels” (ACS Chemical Neuroscience, 2018).

Format in all cases: cell-based
What all share (details): Xenopus oocytes

In one assay the target is T1, TRAAK/EK-1 M2-C (Mus musculus, UniProt O88454+P97438, A151S/D143N/F160Y/H141A/P165L/Q138H/R166H/S147A/S164V/V139S/V154I).
T1 construct: Thr114 (TRAAK/EK-1 M2-C); expressed in transfected cells; host or cells: Xenopus laevis oocytes, mRNA injected; chimera built by Gibson assembly
T1 sequence (O88454+P97438 fused with the stated changes): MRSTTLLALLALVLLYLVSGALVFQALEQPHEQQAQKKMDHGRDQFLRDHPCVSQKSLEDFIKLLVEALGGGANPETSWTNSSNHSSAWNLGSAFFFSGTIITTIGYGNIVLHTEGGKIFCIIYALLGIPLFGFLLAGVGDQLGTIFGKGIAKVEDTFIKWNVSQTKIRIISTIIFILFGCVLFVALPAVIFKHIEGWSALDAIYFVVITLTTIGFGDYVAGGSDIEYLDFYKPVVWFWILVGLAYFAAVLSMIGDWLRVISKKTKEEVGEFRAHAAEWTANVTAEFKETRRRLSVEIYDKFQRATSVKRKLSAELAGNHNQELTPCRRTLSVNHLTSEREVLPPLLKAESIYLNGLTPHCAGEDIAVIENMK
Briefly: TEVC of chimera TRAAK/EK-1 M2-C.

The target in the next assay is T2, TRAAK/EK-1 M4-C (Mus musculus, UniProt O88454+P97438, F242V/L235V/N256D/S249A/T252S/T253M).
T2 construct: and Tyr234 K2P4.1(TRAAK); expressed in transfected cells; host or cells: Xenopus laevis oocytes, mRNA injected; chimera built by Gibson assembly
T2 sequence (O88454+P97438 fused with the stated changes): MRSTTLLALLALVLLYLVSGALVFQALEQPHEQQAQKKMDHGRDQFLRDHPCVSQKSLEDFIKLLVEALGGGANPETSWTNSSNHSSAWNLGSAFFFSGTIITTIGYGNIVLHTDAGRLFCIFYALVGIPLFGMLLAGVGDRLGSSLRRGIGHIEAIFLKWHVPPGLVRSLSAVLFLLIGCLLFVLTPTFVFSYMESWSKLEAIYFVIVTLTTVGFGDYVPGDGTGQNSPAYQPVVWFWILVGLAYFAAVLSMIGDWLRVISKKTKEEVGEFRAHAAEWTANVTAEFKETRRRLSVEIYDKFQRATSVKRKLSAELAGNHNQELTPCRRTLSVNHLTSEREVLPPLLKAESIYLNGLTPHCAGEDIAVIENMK
Description: TEVC of chimera TRAAK/EK-1 M4-C.

The target in another assay is T3, TREK-1/AAK M3-C (Mus musculus, UniProt O88454+P97438).
T3 construct: Trp199 (TREK-1/AAK M3-C); expressed in transfected cells; host or cells: Xenopus laevis oocytes, mRNA injected; chimera built by Gibson assembly
T3 sequence (P97438+O88454 with tags, fused parts or gaps P97438:N200H/P97438:S202P/P97438:Q203P/P97438:T204G/P97438:K205L/P97438:I206V/P97438:I208S/P97438:I209L/P97438:T211A/P97438:I212V/P97438:I213L/P97438:I215L/P97438:F217I/P97438:V220L/P97438:A224L/P97438:L225T/P97438:A227T/P97438:V228F/P97438:I229V/P97438:K231S/P97438:H232Y/P97438:I233M/P97438:G235S/P97438:A238K/P97438:D240E/P97438:V246I/P97438:I247V/P97438:I252V/P97438:A259P/P97438:G261D/P97438:S262G/P97438:D263T/P97438:I264G/P97438:E265Q/P97438:Y266N/P97438:L267S/P97438:D268P/P97438:F269A/P97438:K271Q/P97438:V273L/P97438:V280F/P97438:A287S/P97438:S290T/P97438:M291T/P97438:D294N): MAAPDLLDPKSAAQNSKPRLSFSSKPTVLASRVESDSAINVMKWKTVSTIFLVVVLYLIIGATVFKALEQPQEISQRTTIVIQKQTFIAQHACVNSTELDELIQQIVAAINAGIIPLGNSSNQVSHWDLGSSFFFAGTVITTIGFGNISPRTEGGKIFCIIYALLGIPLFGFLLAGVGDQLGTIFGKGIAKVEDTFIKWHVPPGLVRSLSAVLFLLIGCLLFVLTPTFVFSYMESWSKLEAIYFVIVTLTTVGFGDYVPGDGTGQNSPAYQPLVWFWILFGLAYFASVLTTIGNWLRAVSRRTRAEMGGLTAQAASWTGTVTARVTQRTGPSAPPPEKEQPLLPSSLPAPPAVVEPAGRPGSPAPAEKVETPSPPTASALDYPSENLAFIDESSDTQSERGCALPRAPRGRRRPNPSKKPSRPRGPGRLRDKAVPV
Briefly: TEVC of chimera TREK-1/AAK M3-C.

For another assay, the target named is T4, TRAAK/EK-1 M3-C (Mus musculus, UniProt O88454+P97438, A173T/A231F/D223G/E202D/F190V/F242V/G166T/G224S/G226I/H162N/I179F/I208V/K200A/L167K/L171I/L175I/L177I/L182V/L186A/L235V/M195I/N228Y/N256D/P164S/P165Q/P221A/P230D/Q227E/Q233K/S170I/S193K/S197G/S229L/S249A/T187L/T189A/T225D/T252S/T253M/V168I/V174I/V191I/V209I/V214I/Y194H).
T4 construct: Trp161 (TRAAK/EK-1 M3-C); expressed in transfected cells; host or cells: Xenopus laevis oocytes, mRNA injected; chimera built by Gibson assembly
T4 sequence (O88454+P97438 fused with the stated changes): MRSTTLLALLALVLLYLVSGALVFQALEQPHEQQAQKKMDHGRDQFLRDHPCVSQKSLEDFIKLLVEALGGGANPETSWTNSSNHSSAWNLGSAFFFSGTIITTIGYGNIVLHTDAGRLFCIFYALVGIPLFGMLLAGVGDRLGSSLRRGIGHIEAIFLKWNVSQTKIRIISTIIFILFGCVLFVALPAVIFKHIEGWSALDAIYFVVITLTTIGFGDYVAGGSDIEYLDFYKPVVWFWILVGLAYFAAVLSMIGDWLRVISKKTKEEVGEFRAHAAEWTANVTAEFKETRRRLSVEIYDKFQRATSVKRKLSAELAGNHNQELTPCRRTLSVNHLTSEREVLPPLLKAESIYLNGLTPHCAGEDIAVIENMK
Description: TEVC of chimera TRAAK/EK-1 M3-C.

For `c1ccc(-c2nnn[nH]2)c(Nc2cccc3c2CCCC3)c1` [BL-1249, (5,6,7,8-tetrahydro-naphthalen-1-yl)-[2-(1H-tetrazol-5-yl)-phenyl]-amine], the EC50 came to 28 ± 5 µM at TRAAK/EK-1 M2-C, 45 ± 2 µM at TRAAK/EK-1 M4-C, 28 ± 2 µM at TREK-1/AAK M3-C and 18 ± 2 µM on TRAAK/EK-1 M3-C.

As for `CS(=O)(=O)Nc1ccc(C(=O)NCc2ccc(Cl)cc2Cl)cc1` [ML335], the EC50 on TRAAK/EK-1 M2-C was 8 ± 1 µM; on TRAAK/EK-1 M4-C, over 100 µM; at TREK-1/AAK M3-C, over 100 µM; on TRAAK/EK-1 M3-C it was 13 ± 2 µM.

The term EC50 denotes the concentration that produces a half-maximal response.
